{
  "source": "ChEMBL document CHEMBL1201862",
  "about": "“PubChem BioAssay data set” (2004)",
  "test_in_all_cases": "NCI-60 cell line screen, 48 h",
  "key": {"[1]": {"system": "COLO 205"}, "[2]": {"system": "HCC 2998"}, "[3]": {"system": "M14"}, "[4]": {"system": "RXF 393"}, "[5]": {"system": "SW-620"}, "[6]": {"system": "OVCAR-8"}, "[7]": {"system": "UO-31"}, "[8]": {"system": "SN12C"}, "[9]": {"system": "DMS-114"}, "[10]": {"system": "OVCAR-3"}, "[11]": {"system": "KM12"}, "[12]": {"system": "LOX IMVI"}, "[13]": {"system": "NCI-H23"}, "[14]": {"system": "SNB-75"}, "[15]": {"system": "SF-268"}, "[16]": {"system": "CCRF-CEM"}, "[17]": {"system": "NCI-H226"}, "[18]": {"system": "SNB-19"}, "[19]": {"system": "786-0"}, "[20]": {"system": "U-251"}, "[21]": {"system": "DMS-273"}, "[22]": {"system": "RXF 631"}, "[23]": {"system": "HCT-116"}, "[24]": {"system": "IGROV-1"}, "[25]": {"system": "HOP-62"}, "[26]": {"system": "HL-60"}, "[27]": {"system": "SK-MEL-2"}, "[28]": {"system": "KM-20L2"}, "[29]": {"system": "LXFL 529"}, "[30]": {"system": "NCI-H460"}, "[31]": {"system": "TK-10"}, "[32]": {"system": "K562"}, "[33]": {"system": "SK-MEL-28"}, "[34]": {"system": "SF-539"}, "[35]": {"system": "SF-295"}, "[36]": {"system": "MOLT-4"}, "[37]": {"system": "SK-OV-3"}, "[38]": {"system": "A498"}, "[39]": {"system": "HOP-92"}, "[40]": {"system": "HCT-15"}, "[41]": {"system": "UACC-257"}, "[42]": {"system": "M19-MEL"}, "[43]": {"system": "HT-29"}, "[44]": {"system": "EKVX"}, "[45]": {"system": "OVCAR-4"}, "[46]": {"system": "Malme-3M"}, "[47]": {"system": "A549"}, "[48]": {"system": "RPMI-8226"}, "[49]": {"system": "DLD-1"}, "[50]": {"system": "UACC-62"}, "[51]": {"system": "ACHN"}, "[52]": {"system": "SNB-78"}},
  "note": "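Results reflect a 48-hour exposure of cells in 96-well plates to compound at five concentrations. At the GI50, growth is halved.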 Calls of active or inactive are those of the source. Rule as the data show it: active = GI50 up to about 1.1 µM and inactive = higher.",
  "data": [
    {"smiles": "COc1ccc(NC(=O)C(=O)C2NC(=S)NC2=O)c(OC)c1", "note": "(configuration not stated)", "values": [
      {"measurement": "GI50", "setting": "[1]", "value": "> 100 µM (inactive)"},
      {"measurement": "GI50", "setting": "[2]", "value": "> 100 µM (inactive)"},
      {"measurement": "GI50", "setting": "[3]", "value": "> 100 µM (inactive)"},
      {"measurement": "GI50", "setting": "[4]", "value": "> 100 µM (inactive)"},
      {"measurement": "GI50", "setting": "[5]", "value": "> 100 µM (inactive)"},
      {"measurement": "GI50", "setting": "[6]", "value": "> 100 µM (inactive)"},
      {"measurement": "GI50", "setting": "[7]", "value": "> 100 µM (inactive)"},
      {"measurement": "GI50", "setting": "[8]", "value": "> 100 µM (inactive)"},
      {"measurement": "GI50", "setting": "[9]", "value": "> 100 µM (inactive)"},
      {"measurement": "GI50", "setting": "[10]", "value": "> 100 µM (inactive)"},
      {"measurement": "GI50", "setting": "[11]", "value": "> 100 µM (inactive)"},
      {"measurement": "GI50", "setting": "[12]", "value": "> 100 µM (inactive)"},
      {"measurement": "GI50", "setting": "[13]", "value": "> 100 µM (inactive)"},
      {"measurement": "GI50", "setting": "[14]", "value": "> 100 µM (inactive)"},
      {"measurement": "GI50", "setting": "[15]", "value": "> 100 µM (inactive)"},
      {"measurement": "GI50", "setting": "[16]", "value": "> 10 µM (inactive)"},
      {"measurement": "GI50", "setting": "[17]", "value": "> 100 µM (inactive)"},
      {"measurement": "GI50", "setting": "[18]", "value": "> 100 µM (inactive)"},
      {"measurement": "GI50", "setting": "[19]", "value": "> 100 µM (inactive)"},
      {"measurement": "GI50", "setting": "[20]", "value": "> 100 µM (inactive)"},
      {"measurement": "GI50", "setting": "[21]", "value": "> 100 µM (inactive)"},
      {"measurement": "GI50", "setting": "[22]", "value": "> 100 µM (inactive)"},
      {"measurement": "GI50", "setting": "[23]", "value": "> 100 µM (inactive)"},
      {"measurement": "GI50", "setting": "[24]", "value": "> 100 µM (inactive)"},
      {"measurement": "GI50", "setting": "[25]", "value": "> 100 µM (inactive)"},
      {"measurement": "GI50", "setting": "[26]", "value": "> 100 µM (inactive)"},
      {"measurement": "GI50", "setting": "[27]", "value": "> 100 µM (inactive)"},
      {"measurement": "GI50", "setting": "[28]", "value": "> 100 µM (inactive)"},
      {"measurement": "GI50", "setting": "[29]", "value": "> 100 µM (inactive)"},
      {"measurement": "GI50", "setting": "[30]", "value": "> 100 µM (inactive)"},
      {"measurement": "GI50", "setting": "[31]", "value": "> 100 µM (inactive)"},
      {"measurement": "GI50", "setting": "[32]", "value": "> 100 µM (inactive)"},
      {"measurement": "GI50", "setting": "[33]", "value": "> 100 µM (inactive)"},
      {"measurement": "GI50", "setting": "[34]", "value": "> 100 µM (inactive)"},
      {"measurement": "GI50", "setting": "[35]", "value": "> 100 µM (inactive)"},
      {"measurement": "GI50", "setting": "[36]", "value": "> 100 µM (inactive)"},
      {"measurement": "GI50", "setting": "[37]", "value": "> 100 µM (inactive)"},
      {"measurement": "GI50", "setting": "[38]", "value": "> 100 µM (inactive)"},
      {"measurement": "GI50", "setting": "[39]", "value": "> 100 µM (inactive)"},
      {"measurement": "GI50", "setting": "[40]", "value": "> 100", "unit": "µM"},
      {"measurement": "GI50", "setting": "[41]", "value": "> 100 µM (inactive)"},
      {"measurement": "GI50", "setting": "[42]", "value": "> 100 µM (inactive)"},
      {"measurement": "GI50", "setting": "[43]", "value": "> 100 µM (inactive)"},
      {"measurement": "GI50", "setting": "[44]", "value": "> 100 µM (inactive)"},
      {"measurement": "GI50", "setting": "[45]", "value": "> 100 µM (inactive)"},
      {"measurement": "GI50", "setting": "[46]", "value": "> 100 µM (inactive)"},
      {"measurement": "GI50", "setting": "[47]", "value": "> 100 µM (inactive)"},
      {"measurement": "GI50", "setting": "[48]", "value": "> 100 µM (inactive)"},
      {"measurement": "GI50", "setting": "[49]", "value": "> 100 µM (inactive)"},
      {"measurement": "GI50", "setting": "[50]", "value": "> 100 µM (inactive)"},
      {"measurement": "GI50", "setting": "[51]", "value": "> 100 µM (inactive)"},
      {"measurement": "GI50", "setting": "[52]", "value": "> 100 µM (inactive)"}
    ]}
  ]
}
